Measured values: US12721826B2, “Salt of a pharmaceutical compound” (ACTIMED THERAPEUTICS LTD, priority 2023, dated 2026)

Legend:
[1] = counterion acid; cited from earlier work
[2] = Solid form stability: XRPD re-analysis after drying under vacuum and after storage at 40° C./75% RH; assay type: physicochemical; conditions: for XRPD form after drying and storage: after drying at 40° C. under vacuum and storage at 40° C./75% RH; for hygroscopicity properties: overall assessment in words
Description: XRPD analysis was carried out on a PANalytical X'pert pro with PIXcel detector (128 channels), scanning the samples between 3 and 35° 2θ. The material was gently ground to release any agglomerates and loaded onto a multi-well plate with Kapton or Mylar polymer film to support the sample. The multi-well plate was then placed into the diffractometer and analysed using Cu K radiation (α1 λ=1.54060 Å; α2=1.54443 Å; β=1.39225 Å; α1: α2 ratio=0.5) running in transmission mode (step size 0.0130° 2θ, step time 18.87s) using 40 kV/40 mA generator settings. Data were visualized and images generated using the HighScore Plus 4.7 desktop application (PANalytical, 2017).
Solutions were allowed to evaporate at ambient temperature (ca. 20° C.) and pressure. Potential salts were dried at 40° C. under vacuum for ca. 19 h and re-analyzed by XRPD then stored at 40° C./75% RH for ca. 19 h and re-analyzed by XRPD.

[3] = 7 days storage stability of dihydrogenphosphate polymorphs (HPLC purity); conditions: for stability (comparison of polymorphs, in words): Pattern 3 compared with Pattern 1 and Pattern 2
[4] = after drying at 40° C. under vacuum
[5] = storage at 40° C./75% RH, ca. 19 h

Structure (SMILES): O=C(O)CNC(=O)c1ccccc1 [Hippuric acid]
- pKa1 [1]: 3.6

Structure (SMILES): C=CCOc1ccccc1OC[C@@H](O)CNC(C)C.O=P(O)(O)O [S-oxprenolol dihydrogenphosphate Pattern 1]
- XRPD form after stress ([2]; after heating to 40° C., drying at ambient temperature (ca. 20° C.) under vacuum and storage at 40° C./75% RH): dihydrogenphosphate Pattern 1 to remain
- stability (comparison of polymorphs, in words) [3]: issues with stability

Structure (SMILES): CC1(C)C2CCC1(CS(=O)(=O)O)C(=O)C2 (stereo not shown) [Camphorsulfonic acid]
- pKa1 [1]: 2.2

Structure (SMILES): CCS(=O)(=O)O [Ethanesulfonic acid]
- pKa1 [1]: 2.1

Structure (SMILES): C=CCOc1ccccc1OC[C@@H](O)CNC(C)C.O=C(O)C(=O)O [oxalate Pattern 2, S-oxprenolol oxalate]
- XRPD form after drying [2, 4]: a mixture of Pattern 1 and 2 was obtained

Structure (SMILES): C=CCOc1ccccc1OC[C@@H](O)CNC(C)C.O=C(O)C(=O)O [Oxalate Pattern 1 & 2, S-oxprenolol oxalate]
- Observation after storage at 40° C./75% RH [2, 5]: predominantly unchanged

Structure (SMILES): O=S(=O)(O)c1cccc2c(S(=O)(=O)O)cccc12 [Naphthalene-1,5-disulfonic acid]
- pKa1 [1]: −3.4
- pKa2 [1]: −2.6

Structure (SMILES): C=CCOc1ccccc1OC[C@@H](O)CNC(C)C.O=C(O)c1ccc2ccccc2c1O [xinafoate Pattern 1]
- XRPD form after drying and storage [2]: xinafoate Pattern 1 was retained

Structure (SMILES): C=CCOc1ccccc1OC[C@@H](O)CNC(C)C.O=C(O)C(=O)O [oxalate Pattern 1, S-oxprenolol oxalate]
- XRPD form after drying and storage [2]: oxalate Pattern 1 was retained

Structure (SMILES): O=C(O)c1cc2ccccc2c(Cc2c(O)c(C(=O)O)cc3ccccc23)c1O [Pamoic acid]
- pKa1 [1]: 2.5
- pKa2 [1]: 3.1

Structure (SMILES): C=CCOc1ccccc1OC[C@@H](O)CNC(C)C.O=P(O)(O)O [S-oxprenolol dihydrogenphosphate Pattern 3]
- stability (comparison of polymorphs, in words) [3]: improved stability
- HPLC purity following storage ([3]; after 7 days storage at 40° C./75% RH): > 99.9 % area
- HPLC purity following storage ([3]; after 7 days storage at ambient temperature): > 99.9 % area

Structure (SMILES): C=CCOc1ccccc1OC[C@@H](O)CNC(C)C.O=P(O)(O)O [S-oxprenolol dihydrogenphosphate Pattern 2]
- XRPD form after drying ([2]; dried under vacuum at ambient temperature (ca. 20° C.) for ca. 69 h, precipitated from ethanol/heptane): phosphate Pattern 3 was obtained after drying
- XRPD form after drying ([2]; isolated from temperature cycling in 1-butanol, after drying): converted to phosphate Pattern 3
- stability (comparison of polymorphs, in words) [3]: issues with stability

Structure (SMILES): O=C(O)CCCC(=O)O [Glutaric acid]
- pKa1 [1]: 4.34

Structure (SMILES): C=CCOc1ccccc1OC[C@@H](O)CNC(C)C.CC(=O)O [Acetate Pattern 2]
- Observation after storage at 40° C./75% RH ([2]; material from THF): partially deliquesce
- XRPD result after storage at 40° C./75% RH ([2]; material from acetone): Pattern 2 peaks remained
- Observation after storage at 40° C./75% RH ([2]; material from acetone, ethyl acetate and t-BME): deliquesced
- XRPD result after storage at 40° C./75% RH ([2]; material from ethyl acetate and t-BME): Predominantly amorphous material was obtained

Structure (SMILES): C=CCOc1ccccc1OC[C@@H](O)CNC(C)C.CC(=O)O [acetate salt]
- hygroscopicity properties [2]: poor

Structure (SMILES): O=C(O)[C@H](O)[C@@H](O)[C@H](O)[C@H](O)CO [D-Gluconic acid]
- pKa1 [1]: 3.8

Structure (SMILES): O=C(O)c1ccccc1C(=O)O [Phthalic acid]
- pKa1 [1]: 2.89
- pKa2 [1]: 5.51

Structure (SMILES): O=S(=O)(O)CCS(=O)(=O)O [Ethane-1,2-disulfonic acid]
- pKa1 [1]: −2.1
- pKa2 [1]: −1.5

Structure (SMILES): C=CCOc1ccccc1OC[C@@H](O)CNC(C)C.O=C(O)CNC(=O)c1ccccc1 [hippurate Pattern 1]
- XRPD form after drying [2, 4]: hippurate Pattern 1 was retained
- hygroscopicity properties [2]: poor
- Observation after storage at 40° C./75% RH [2, 5]: deliquescence was observed to amorphous materials

Structure (SMILES): O=S(=O)(O)c1ccccc1 [Benzenesulfonic acid]
- pKa1 [1]: 0.7
